The text below walks through data of publication PMC12431657, “Discovery and mechanistic insights of dibenzoylmethane as a broad spectrum inhibitor of coronavirus” (PLOS Pathogens, 2025).

One assay relates to HCoV-229E. The experiment in a line: Antiviral activity in vitro, qRT-PCR, HCoV-229E in MRC-5 cells. Format: cell-based. The following applies: for HCoV-229E, MRC-5: inhibition at the concentration (Fig2B): replicates. A general note: Real-time PCR tracks product formation cycle by cycle.
Assay [1] concerns HCoV-OC43. The experiment in a line: Time-of-addition assay. Format: cell-based. The following applies: for time-of-addition, viral inhibition: replicates. The method, then:
(§1) To obtain further insight into the stage at which DBM inhibits the replication of HCoV-OC43 and other HCoVs, RD cells were incubated with compounds, including DBM, remdesivir (RDV), and chloroquine (CQ), at different stages of viral infection. Viral RNA from the supernatant was extracted and quantitatively analysed via qRT-PCR. […] For the viral binding assay, cells were cultured in the presence or absence of DBM at different concentrations for 1 hour before being infected with HCoV-OC43 at an MOI of 50, and then were placed on ice for 2 hours for the viral particles to bind to the membrane of the host cells, followed by washing with PBS. […] In addition to binding to receptors from host cells, the spike proteins of HCoV-OC43 could also trigger membrane fusion when HCoV-OC43 spike plasmid-transfected 293T cells were seeded together with RD cells as target cells, and the addition of DBM had no effect on this process (S5C Fig). To examine whether DBM inhibits viral internalisation, cells were inoculated with HCoV-OC43 for 1 hour on ice before being treated with either DBM or DMSO, and CQ was included to prevent endosomal acidification. Subsequently, HCoV-OC43 nucleocapsid proteins were immunostained with CoraLite Plus 488 to assess viral internalisation via confocal microscopy. […] To determine whether DBM influences viral release, we quantified viral RNA both intracellularly and in the supernatant.
To evaluate the effects of DBM on the life cycle of HCoV-229E and HCoV-OC43, fresh culture medium containing 0.6 μM DBM, 0.1 μM remdesivir (RDV), or 10 μM chloroquine (CQ) was supplemented with preseeded cells at different time points relative to infection (entry group: 0 to –2 hours; postinfection group: 2–12 hours; and full-time group: 0 to –12 hours). DMSO served as the control. At 24 hours postinfection, the number of intracellular virus RNA copies was quantified by qRT-PCR as previously described.

Assay [2] concerns HCoV-OC43. The experiment in a line: Viral entry and internalization assay. The class given is cell-based. The note with it: confocal microscopy. The method, then: as §1, with “Fig).” for “Fig). To examine whether DBM inhibits viral internalisation, cells were inoculated with HCoV-OC43 for 1 hour on ice before being treated with either DBM or DMSO, and CQ was included to prevent endosomal acidification. Subsequently, HCoV-OC43 nucleocapsid proteins were immunostained with CoraLite Plus 488 to assess viral internalisation via confocal microscopy.”
The cells were seeded at a low density onto 35 mm glass bottom dishes with 10 mm microwells (Cellvis) and incubated overnight at 37 °C. […] The number of intracellular virus particles was quantified with ImageJ software.

Assay [3] relates to HCoV-OC43. The experiment in a line: Viral release (intracellular versus supernatant viral RNA). Format: cell-based. As to the method: To obtain further insight into the stage at which DBM inhibits the replication of HCoV-OC43 and other HCoVs, RD cells were incubated with compounds, including DBM, remdesivir (RDV), and chloroquine (CQ), at different stages of viral infection. Viral RNA from the supernatant was extracted and quantitatively analysed via qRT-PCR. […] For the viral binding assay, cells were cultured in the presence or absence of DBM at different concentrations for 1 hour before being infected with HCoV-OC43 at an MOI of 50, and then were placed on ice for 2 hours for the viral particles to bind to the membrane of the host cells, followed by washing with PBS. […] To determine whether DBM influences viral release, we quantified viral RNA both intracellularly and in the supernatant.
A) Efficacy of DBM, remdesivir (RDV), and chloroquine (CQ) in inhibiting virus replication at different stages of administration. […] C) Fluorescence images of cell-cell fusion induced by the transient expression of HCoV-OC43 spike proteins and eGFP (green) in RD cells. […] D) Confocal fluorescence microscopy images showing HCoV-OC43 internalization. E) Quantification of intracellular viral particles per cell, based on images obtained from confocal fluorescence microscopy. […] Data were statistically analysed with Student’s T test. *: p ≤ 0.05, **: p ≤ 0.01, ***: p ≤ 0.001, ****: p ≤ 0.0001; ns, not significant. […]

The target of a further assay is caspase-6 (Homo sapiens, UniProt P55212). The class given is cell-based. The following applies: STS-treated cells.
Sequence of caspase-6 (P55212 194-293): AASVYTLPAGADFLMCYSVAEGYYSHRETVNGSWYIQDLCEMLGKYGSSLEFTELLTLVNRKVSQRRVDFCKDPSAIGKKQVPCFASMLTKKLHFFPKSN
Sequence of caspase-6 (P55212 24-179): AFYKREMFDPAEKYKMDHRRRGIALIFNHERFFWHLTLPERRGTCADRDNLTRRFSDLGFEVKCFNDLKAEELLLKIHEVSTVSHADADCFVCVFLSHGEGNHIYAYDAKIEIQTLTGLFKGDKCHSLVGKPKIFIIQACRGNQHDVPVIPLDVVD
Assay [4] relates to HCoV-OC43. The following applies: DBM 400 mpk QD.
Another assay has as its system mammary tumorigenesis. More on the design: method as in PMID 11403916. The following applies: dietary DBM, mice; cited from earlier work.

The structures appear in SMILES notation. Several values for one entry are separate records, joined by “and”; a condition that tells them apart may be missing. Equal values may be shown once.

On to `O=C(CC(=O)c1ccccc1)c1ccccc1` [DBM, dibenzoylmethane], for which the EC50 (as a rule, the concentration that produces a half-maximal response) in the assay with HCoV-229E (Human coronavirus 229E, MRC5, 24 h, read-out: EC50 HCoV-229E (MRC-5)) stood at 700 nM. Further, the “HCoV-229E, MRC-5: inhibition at the concentration (Fig2B)” value with HCoV-229E (conc. 0.1 (unit not given)) was 0.8 and 1.1 and 0.3; in the assay with HCoV-229E (conc. 0.2 (unit not given)) it was 1.4 and -2.2 and 0.6; in the assay with HCoV-229E (conc. 0.7 (unit not given)), 17.4 and 32.7 and 56.6; in the assay on HCoV-229E (conc. 2.2 (unit not given)) it was 69.7 and 42.7 and 53.8; in the assay on HCoV-229E (conc. 6.7 (unit not given)) it was 86.0 and 92.7 and 89.8; in the assay on HCoV-229E (conc. 20.0 (unit not given)), 94.3 and 95.3 and 95.9. In addition, the “time-of-addition, viral inhibition” value is 44.1 and 45.1 and 75.5 with HCoV-OC43 [1] (Entry); 98.8 and 98.7 (2×) in the assay with HCoV-OC43 [1] (Full-Time); 79.3 and 93.6 and 93.3 with HCoV-OC43 [1] (Post-Entry). In the assay with HCoV-OC43 [1] (RD cells, 0.6 μM DBM), the “HCoV-OC43 infection, compound incubated before and during virus infection” value was “did not significantly inhibit”. Besides, the “replication of HCoV-OC43, compound added 2 hours after virus inoculation” value in the assay with HCoV-OC43 [1] (RD cells, 0.6 μM DBM) is “potently inhibited”. In addition, the viral internalisation result with HCoV-OC43 [2] is “did not interfere”. Moreover, the “proportion of viral RNAs released into the supernatant versus controls” value in the assay with HCoV-OC43 [3] was “No significant difference”. In addition, in the assay with HCoV-OC43 [3] (DBM-treated samples, replicates), the “Proportion of release of HCoV-OC43 RNA” value was 0.9 and 1.5 and 5.8. In addition, the “levels of cleaved HCoV-OC43 and SARS-CoV-2 nucleocapsid proteins” value at caspase-6 is “significantly reduces”. The “body weight loss during the experiment” value with HCoV-OC43 [4] (VV116 25 mpk QD) was “did not show any body weight loss”. The “viral copy numbers in the brain, lungs, and kidneys compared with the vehicle group” value in the assay on HCoV-OC43 [4] (5 days post infection) is “significantly fewer viral copy numbers”. Besides, the “viral load in the brains lower than in the vehicle group” value in the assay with HCoV-OC43 [4] (Day 5) is “approximately 6 logs”. In addition, the “reduction of tumor incidence” value with mammary tumorigenesis was 97%.
